From PubChem BioAssay (NCI)
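Compound exposure: 48 hours, 5 concentrations, 96-well plates. TGI: total growth inhibition.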

Assays:
Assay in all cases: NCI tumour cell line growth inhibition, 48 h
HCT-15 colon = system: HCT-15 colon
OVCAR-4 ovarian = system: OVCAR-4 ovarian
MDA-MB-231 breast = system: MDA-MB-231 breast
NCI/ADR-RES ovarian = system: NCI/ADR-RES ovarian
DU-145 prostate = system: DU-145 prostate
SK-MEL-28 melanoma = system: SK-MEL-28 melanoma
SK-OV-3 ovarian = system: SK-OV-3 ovarian
U251 CNS = system: U251 CNS
ACHN renal = system: ACHN renal
T-47D breast = system: T-47D breast
COLO 205 colon = system: COLO 205 colon
SK-MEL-5 melanoma = system: SK-MEL-5 melanoma
SF-295 CNS = system: SF-295 CNS
HCT-116 colon = system: HCT-116 colon
NCI-H226 lung = system: NCI-H226 lung
NCI-H23 lung = system: NCI-H23 lung
HT29 colon = system: HT29 colon
786-0 renal = system: 786-0 renal
UACC-257 melanoma = system: UACC-257 melanoma
SK-MEL-2 melanoma = system: SK-MEL-2 melanoma
M14 melanoma = system: M14 melanoma
NCI-H460 lung = system: NCI-H460 lung
SR leukemia = system: SR leukemia
HOP-92 NSCLC = system: HOP-92 NSCLC
SNB-19 CNS = system: SNB-19 CNS
SW-620 colon = system: SW-620 colon
MDA-MB-435 = system: MDA-MB-435
RXF 393 renal = system: RXF 393 renal
RPMI-8226 leukemia = system: RPMI-8226 leukemia
A498 renal = system: A498 renal
OVCAR-8 ovarian = system: OVCAR-8 ovarian
KM12 colon = system: KM12 colon
OVCAR-3 ovarian = system: OVCAR-3 ovarian
SN12C renal = system: SN12C renal
UACC-62 melanoma = system: UACC-62 melanoma
SF-268 CNS = system: SF-268 CNS
NCI-H522 lung = system: NCI-H522 lung
MOLT-4 leukemia = system: MOLT-4 leukemia
HCC-2998 colon = system: HCC-2998 colon
EKVX NSCLC = system: EKVX NSCLC
MDA-N = system: MDA-N
BT-549 breast = system: BT-549 breast
HS 578T breast = system: HS 578T breast
TK-10 renal = system: TK-10 renal
LOX IMVI melanoma = system: LOX IMVI melanoma
IGROV1 ovarian = system: IGROV1 ovarian
CCRF-CEM leukemia = system: CCRF-CEM leukemia
UO-31 renal = system: UO-31 renal
MCF7 breast = system: MCF7 breast
PC-3 prostate = system: PC-3 prostate
HOP-62 NSCLC = system: HOP-62 NSCLC
OVCAR-5 ovarian = system: OVCAR-5 ovarian
MALME-3M melanoma = system: MALME-3M melanoma
SNB-75 CNS = system: SNB-75 CNS
HL-60(TB) leukemia = system: HL-60(TB) leukemia
A549 NSCLC = system: A549 NSCLC
K-562 leukemia = system: K-562 leukemia
CAKI-1 renal = system: CAKI-1 renal
SF-539 CNS = system: SF-539 CNS

## O=c1cc(NNc2ccccc2)[nH]c(=S)[nH]1
HCT-15 colon
  TGI: 42.1 µM
OVCAR-4 ovarian
  TGI: > 100 µM
MDA-MB-231 breast
  TGI: 65.2 µM
NCI/ADR-RES ovarian
  TGI: > 100 µM
DU-145 prostate
  TGI: > 100 µM
SK-MEL-28 melanoma
  TGI: > 100 µM
SK-OV-3 ovarian
  TGI: > 100 µM
U251 CNS
  TGI: > 100 µM
ACHN renal
  TGI: > 100 µM
T-47D breast
  TGI: > 100 µM
COLO 205 colon
  TGI: > 100 µM
SK-MEL-5 melanoma
  TGI: > 100 µM
SF-295 CNS
  TGI: > 100 µM
HCT-116 colon
  TGI: 53.9 µM
NCI-H226 lung
  TGI: > 100 µM
NCI-H23 lung
  TGI: > 100 µM
HT29 colon
  TGI: > 100 µM
786-0 renal
  TGI: > 100 µM
UACC-257 melanoma
  TGI: > 100 µM
SK-MEL-2 melanoma
  TGI: 61.3 µM
M14 melanoma
  TGI: > 100 µM
NCI-H460 lung
  TGI: > 100 µM
SR leukemia
  TGI: 70.3 µM
HOP-92 NSCLC
  TGI: > 100 µM
SNB-19 CNS
  TGI: > 100 µM
SW-620 colon
  TGI: 49.5 µM
MDA-MB-435
  TGI: > 100 µM
RXF 393 renal
  TGI: > 100 µM
RPMI-8226 leukemia
  TGI: 58.6 µM
A498 renal
  TGI: > 100 µM
OVCAR-8 ovarian
  TGI: > 100 µM
KM12 colon
  TGI: > 100 µM
OVCAR-3 ovarian
  TGI: 31.4 µM
SN12C renal
  TGI: > 100 µM
UACC-62 melanoma
  TGI: > 100 µM
SF-268 CNS
  TGI: > 100 µM
NCI-H522 lung
  TGI: 35.7 µM
MOLT-4 leukemia
  TGI: 91.7 µM
HCC-2998 colon
  TGI: 50.5 µM
EKVX NSCLC
  TGI: > 100 µM
MDA-N
  TGI: > 100 µM
BT-549 breast
  TGI: > 100 µM
HS 578T breast
  TGI: > 100 µM
TK-10 renal
  TGI: 90.6 µM
LOX IMVI melanoma
  TGI: 31.3 µM
IGROV1 ovarian
  TGI: > 100 µM
CCRF-CEM leukemia
  TGI: 88.6 µM
UO-31 renal
  TGI: > 100 µM
MCF7 breast
  TGI: > 100 µM
PC-3 prostate
  TGI: > 100 µM
HOP-62 NSCLC
  TGI: > 100 µM
OVCAR-5 ovarian
  TGI: > 100 µM
MALME-3M melanoma
  TGI: > 100 µM
SNB-75 CNS
  TGI: > 100 µM
HL-60(TB) leukemia
  TGI: 62.6 µM
A549 NSCLC
  TGI: > 100 µM
K-562 leukemia
  TGI: 80.2 µM
CAKI-1 renal
  TGI: 35.9 µM
SF-539 CNS
  TGI: > 100 µM

## O=c1c2nn3c(=O)n(-c4ccccc4)c(=O)c3nn2c(=O)n1-c1ccccc1
HCT-15 colon
  TGI: > 100 µM
OVCAR-4 ovarian
  TGI: > 100 µM
MDA-MB-231 breast
  TGI: > 100 µM
NCI/ADR-RES ovarian
  TGI: > 100 µM
DU-145 prostate
  TGI: > 100 µM
SK-MEL-28 melanoma
  TGI: > 100 µM
SK-OV-3 ovarian
  TGI: > 100 µM
U251 CNS
  TGI: > 100 µM
ACHN renal
  TGI: > 100 µM
T-47D breast
  TGI: > 100 µM
COLO 205 colon
  TGI: > 100 µM
SK-MEL-5 melanoma
  TGI: > 100 µM
SF-295 CNS
  TGI: > 100 µM
HCT-116 colon
  TGI: > 100 µM
NCI-H226 lung
  TGI: > 100 µM
NCI-H23 lung
  TGI: > 100 µM
HT29 colon
  TGI: > 100 µM
786-0 renal
  TGI: > 100 µM
UACC-257 melanoma
  TGI: > 100 µM
SK-MEL-2 melanoma
  TGI: > 100 µM
M14 melanoma
  TGI: > 100 µM
NCI-H460 lung
  TGI: > 100 µM
SR leukemia
  TGI: > 100 µM
HOP-92 NSCLC
  TGI: > 100 µM
SNB-19 CNS
  TGI: > 100 µM
SW-620 colon
  TGI: > 100 µM
MDA-MB-435
  TGI: > 100 µM
RXF 393 renal
  TGI: > 100 µM
RPMI-8226 leukemia
  TGI: > 100 µM
A498 renal
  TGI: > 100 µM
OVCAR-8 ovarian
  TGI: > 100 µM
KM12 colon
  TGI: > 100 µM
OVCAR-3 ovarian
  TGI: > 100 µM
SN12C renal
  TGI: > 100 µM
UACC-62 melanoma
  TGI: > 100 µM
SF-268 CNS
  TGI: > 100 µM
NCI-H522 lung
  TGI: > 100 µM
MOLT-4 leukemia
  TGI: > 100 µM
HCC-2998 colon
  TGI: > 100 µM
EKVX NSCLC
  TGI: > 100 µM
MDA-N
  TGI: > 100 µM
BT-549 breast
  TGI: > 100 µM
HS 578T breast
  TGI: > 100 µM
TK-10 renal
  TGI: > 100 µM
LOX IMVI melanoma
  TGI: > 100 µM
IGROV1 ovarian
  TGI: > 100 µM
CCRF-CEM leukemia
  TGI: > 100 µM
UO-31 renal
  TGI: > 100 µM
MCF7 breast
  TGI: > 100 µM
PC-3 prostate
  TGI: > 100 µM
HOP-62 NSCLC
  TGI: > 100 µM
OVCAR-5 ovarian
  TGI: > 100 µM
MALME-3M melanoma
  TGI: > 100 µM
SNB-75 CNS
  TGI: > 100 µM
HL-60(TB) leukemia
  TGI: > 100 µM
A549 NSCLC
  TGI: > 100 µM
K-562 leukemia
  TGI: > 100 µM
CAKI-1 renal
  TGI: > 100 µM
SF-539 CNS
  TGI: > 100 µM
